One assay concerns TNF-RE-tk-Luc. In words: Antiestrogen effect on TNF-RE-tk-Luc (Example 2). In kind it is cell-based. Particulars: for effect on the repression induced by E2: TNF-RE-tk-Luc; for activation of TNF-RE-tk-Luc: antiestrogens, in contrast to E2. The protocol:
(§1) Plasmid Construction. […] ERβ mutants were created with QuikChange site-directed mutagenesis kits (Stratagene), by using oligonucleotides containing the mutation. The mutants were sequenced with Sequenase kits (Amersham Pharmacia) to verify the presence of the mutation.
(§2) U937 cells were maintained as described previously, whereas U2OS, MDA-MB435, and MCF-7 cells were maintained and subcultured in phenol red-free Dulbecco's modified Eagle's medium/F-12 media containing 5% fetal bovine serum, 2 mM glutamine, 50 units/ml penicillin, and 50 μg/ml streptomycin. For experiments, cells were collected, transferred to a cuvette, and then electroporated with a Bio-Rad gene pulser as described previously using 3 μg of reporter plasmid and 1 μg of ERα or ERβ expression vectors. After electroporation, the cells were re-suspended in media and plated at 1 ml/dish in 12-well multiplates. […] The concentration of hormone required to produce a half-maximal induction (EC50) or inhibition (IC50) of luciferase activity was calculated with the Prism curve-fitting program (Graph Pad Software, version 2.0b). […] The cells were plated in duplicate at a density of 25,000 cells/35-mm plate in tissue culture medium containing 3% stripped fetal bovine serum. […] After 8 days the cells were counted with a Coulter counter.

The test system of assay [1] is estrogen receptor-positive breast cancer. Particulars: five years of therapy; cited from earlier work.
Assay [2] deals with primary invasive breast cancer. Particulars: women at high risk for breast cancer; cited from earlier work.
The test system of the next assay is breast cancer. The note with it: among 5129 women in the treatment group, median follow-up 40 months; cited from earlier work.
Another assay deals with ERα or ERβ. In words: ERE-tk-Luc luciferase activation in U937 cells transfected with ERα or ERβ. In kind it is cell-based. Particulars: human monocytic U937 cells. As to the method:
as §1, §2

Assay [3] has as its target T1, ERβ (Homo sapiens, UniProt Q92731). Particulars: in the presence of ERβ. The protocol:
as §1, §2

Assay [4] deals with T1, ERβ. In words: Repression of TNF-α activation of TNF-RE-tk-Luc in U2OS cells, ERβ. The assay is classed as cell-based. Further details: expressed in transfected cells; host or cells: U2OS (human osteosarcoma). As to the method:
as §2
The extracts (a and b) were than decanted and only the soluble material was used.

SMILES strings stand for the structures.

The values that follow come from patent US7815949B2, “Estrogenic extracts of Morus alba and uses thereof” (BioNovo, Inc., priority 2004, dated 2010).

T1 sequence (Q92731 whole entry): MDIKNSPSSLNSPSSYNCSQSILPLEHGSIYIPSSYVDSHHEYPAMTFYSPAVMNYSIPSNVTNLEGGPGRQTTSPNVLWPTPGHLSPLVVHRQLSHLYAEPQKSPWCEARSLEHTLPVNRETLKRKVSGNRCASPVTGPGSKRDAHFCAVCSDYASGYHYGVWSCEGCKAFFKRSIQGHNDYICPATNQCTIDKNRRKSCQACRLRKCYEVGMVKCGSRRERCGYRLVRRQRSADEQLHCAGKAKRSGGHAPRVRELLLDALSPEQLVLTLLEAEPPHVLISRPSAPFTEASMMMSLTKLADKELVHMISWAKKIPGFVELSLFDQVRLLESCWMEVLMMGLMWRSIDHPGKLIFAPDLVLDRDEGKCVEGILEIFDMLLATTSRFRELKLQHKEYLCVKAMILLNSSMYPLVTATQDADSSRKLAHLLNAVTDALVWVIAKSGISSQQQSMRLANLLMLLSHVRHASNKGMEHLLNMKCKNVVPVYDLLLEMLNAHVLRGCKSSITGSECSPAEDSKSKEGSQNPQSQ

Regarding `CC/C(=C(\c1ccccc1)c1ccc(OCCN(C)C)cc1)c1ccccc1` [tamoxifen], in the assay on TNF-RE-tk-Luc, the “effect on the repression induced by E2” value is given as “abolished” and the “activation of TNF-RE-tk-Luc” value amounted to 2 fold. Also, in assay [1], the “reduction of mortality from breast cancer” value is listed as 22% and the “reduction of the risk of recurrences” value is on record as 42%. In assay [2], the “reduction of the risk of primary invasive breast cancer” value is on record as 49%.

As for `C[C@]12CC[C@@H]3c4ccc(O)cc4C[C@@H](CCCCCCCCC[S+]([O-])CCCC(F)(F)C(F)(F)F)[C@H]3[C@@H]1CC[C@@H]2O` (stereo partly shown) [ICI 182, 780], in the assay with TNF-RE-tk-Luc, the “effect on the repression induced by E2” value is “abolished” and the “activation of TNF-RE-tk-Luc” value came to 2 fold.

As for `O=C(c1ccc(OCCN2CCCCC2)cc1)c1c(-c2ccc(O)cc2)sc2cc(O)ccc12` [raloxifene], in the assay on TNF-RE-tk-Luc, the “effect on the repression induced by E2” value is “abolished” and the “activation of TNF-RE-tk-Luc” value worked out at 2 fold. The “cases of breast cancer” value with breast cancer is recorded as 13 cases.

Take `C[C@]12CC[C@@H]3c4ccc(O)cc4CC[C@H]3[C@@H]1CC[C@@H]2O` [E2, estradiol]: in the assay with ERα or ERβ, the “greater activation of the ERE in the presence of ERα compared to ERβ” value is 10 fold. Moreover, the “repression of TNF-α activation of TNF-RE-tk-Luc” value at ERβ [3] is recorded as 60-80%. Also, at ERβ [4], the “repression of TNF-α activation of TNF-RE” value worked out at 100%.
